Earlier results in patent EP0374725A2, “Transdermal therapeutic system having norpseudoephedrine as the active compound” (LTS Lohmann Therapie-Systeme GmbH & Co. KG, priority 1988, dated 1990).

Settings: background statement, amphetamines as medium-strong bases

For `C[C@H](N)[C@@H](O)c1ccccc1` [D-Norpseudoephedrin], which pka-Wert is on record?
The pka-Wert was 8,9.
